Assay results as given in US20120020876A1, “HEDGEHOG PATHWAY INHIBITORS” (priority 2009, published 2012).
Entries after “also recorded” stand apart in the source; their conditions may differ.

What was measured:
KPC pancreatic tumors = test: Monitoring of KPC pancreatic tumor volume by 3D high resolution ultrasonography; assay type: in vivo, mouse; conditions: gemcitabine 100 mg/kg twice weekly, Compound A 40 ug/kg/day, or both
Text: For survival studies, mice were enrolled following the detection of 5-10 mm diameter tumor by ultrasound. Tumors were quantified by 3D ultrasound twice weekly until endpoint. High resolution ultrasound (US) imaging of normal and diseased mouse pancreas using the Vevo 770 System with a 35 MHz RMV scanhead (Visual Sonics, Inc.). 3D images were produced using the 3D motor arm to collect serial images at 0.25 mm intervals through the thickness of the tumor. Tumors were outlined on each 2D image and reconstructed to quantify the 3D volume using the integrated Vevo 770 software package.

[1] = tested on: pancreatic tumors in KPC mice; test: Survival study of tumor-bearing KPC mice; assay type: in vivo, mouse; conditions: KPC mice enrolled with 5-10 mm tumors
Protocol: vehicles: 20 μL/g 0.85% NaCl+8 μL/g 5% HPBCD;
Compound A: 40 mg/kg Compound A+20 μL/g 0.85% NaCl;
For survival studies, mice were enrolled following the detection of 5-10 mm diameter tumor by ultrasound. Tumors were quantified by 3D ultrasound twice weekly until endpoint.

[2] = 19F NMR of fluorinated gemcitabine metabolites in tissue; assay type: in vivo, mouse; conditions: six hours after gemcitabine dosage; pilot experiments
Protocol: Mice were treated with indicated regiments for 12 days. […] Tissues were rapidly dissected and snap frozen in liquid nitrogen. Tissue specimens were maintained at −80° C. until subjected to nucleotide extraction. Samples were homogenized in a Qiagen TissueLyser with a 5 mm ball bearing for 2×6 minutes at 25 KHz, in the presence of 4 volumes of ice-cold acetonitrile (μL acetonitrile=4×[…] of tissue). An equal volume of water was added and then the sample was spun at 14,000 rpm for 10 minutes at 4° C. Supernatant was freeze dried, resuspended in 600 μL of D2O and transferred to a 5 mm standard NMR tube (Wilmad) for ^19F NMR analysis on a Bruker 600 MHZ (14.1T) Avance NMR spectrometer using a QNP probe. Acquisition parameters included a 1D pulse sequence of ^19F observation and inverse-gated ^1H decoupling, spectral sweep width of 177 ppm (100000 Hz), 4096 scans and 1.65 sec of repetition time. Total acquisition time for each sample was about 1 hr 55 min. Trichloro-fluoro-methane was used for ^19F NMR chemical shift calibrations. A broad hump observed in the baseline of ^19F NMR spectra was removed by application of Linear-prediction (LP) back projection to the time domain data by using 2000 (number of LP) coefficients and 128 back-prediction points prior to Fourier transformation and phase correction. […]

KPC tumors [3] = test: Proliferation of KPC tumors (phospho-histone H3 immunohistochemistry); assay type: in vivo, mouse; conditions: 4 days or 8-12 days of treatment
Protocol: (§1) Tissues were fixed in 10% formalin solution for 24 hours and transferred to 70% ethanol. Tissues were paraffin embedded, sectioned and rehydrated. For CD31 IHC, sections were unmasked in 10 mM EDTA, pH 8.0 in a pressure cooker. For all other antibodies, sections were unmasked in 10 mM citric acid in a pressure cooker. Endogenous peroxidases were quenched in 3% H2O2/PBS for 20 minutes. Remaining steps were carried out with Vectastain ABC kits appropriate to the species of primary antibody (Vector Labs, Burlingame, Calif.) with the following modification: blocking serum was supplemented with Protein Blocking Agent (Immunotech/BeckmanCoulter, Fullerton, Calif.) diluted 1:50. Antigens were developed with DAB Peroxidase Substrate (Vector Labs). The following antibody dilutions were used: Phospho-Histone H3, 1:100 (#9701, Cell Signaling Technology); Cleaved Caspase 3, 1:100 (#9661, Cell Signaling Technology); CD31, 1:75 (SC-1506). Slides were counterstained with hematoxylin.

KPC tumors [4] = test: Apoptosis in KPC tumors (Cleaved Caspase 3 immunohistochemistry); assay type: in vivo, mouse
Protocol: as §1

KPC tumors [5] = test: Histology (H&E) of treated KPC tumors; assay type: in vivo, mouse; conditions: KPC tumors after 8-12 days of treatment
[6] = tested on: transplanted pancreatic tumors; test: Growth of subcutaneous and orthotopic transplanted pancreatic tumors; assay type: in vivo; conditions: transplantation models of human or mouse origin; gemcitabine Q3Dx4, 12 days
Protocol: The human pancreatic cancer cell line AsPc1 was cultured according to instructions. Mouse pancreatic cancer cell lines […], […] and DT8082 were isolated from tumors arising in KPC mice using a modification of the protocol described by Schreiber et al., Gastroenterology (20004) 127:250. Briefly, a 3 mm^3 fragment of PDA was excised, washed in 10 mL of cold PBS, and then finely diced with sterile razors. Cells were incubated in 10 mL of collagenase solution at 37° C. for 30-45 minutes with mixing (1 mg/mL collagenase V in DMEM/F12). Cells were spun (100 rpm, 5 min.) and resuspended in 0.05% Trypsin/EDTA for 5 min. at 37° C., and then quenched with DMEM supplemented with 10% fetal calf serum and 96 μM CaCl2. Cells were washed 3 times with DMEM/F12 medium and plated in a 6-well Biocoat dish (Becton Dickenson) in the ductal cell medium. After 3-4 passages, cells were transferred to standard plastic tissue culture dishes and grown in DMEM+10% FCS. 1×10^6 cells suspended in 100 μL of PBS were injected subcutaneously into the flanks of nude mice (xenografts) or into immunocompetent mice (syngeneic). For syngeneic models, recipient mice were descended from mice used to generate the KPC PDA cell lines. […] Long (L) and short (S) axes of each tumor were measured with calipers (for subcutaneous tumors) or ultrasound (for orthotopic tumors). Tumor volume (V) was calculated: V=(L×S^2)/2. […]

[7] = Gemcitabine (dFdC) in blood of normal mice by HPLC; assay type: in vivo, mouse
[8] = Determination of dFdCTP in tissues by HPLC; assay type: in vivo, mouse; conditions: 50 or 100 mg/kg gemcitabine i.p., 4 h
Protocol: Tissues were rapidly dissected and snap frozen in liquid nitrogen. Specimens were maintained at −80° C. until nucleotide extraction. Specimens were ground under liquid nitrogen with a mortar and pestle. The powdered contents were suspended in 0.4N perchloric acid and sonicated in an ice bath. Solids were removed by centrifugation, the pellet was washed with perchloric acid, and the supernatants were combined. Following neutralization with KOH and removal of KClO4 by centrifugation, a portion of the supernatant was analyzed by high-pressure liquid chromatography. The amount of gemcitabine triphosphate was normalized to the ATP level determined in the same sample analysis. Samples with inadequate concentrations of ATP were excluded from analysis.

[9] = tested on: transplanted pancreatic tumors; test: Proliferation of transplanted tumors (phospho-histone H3 immunohistochemistry); assay type: in vivo, mouse; conditions: gemcitabine Q3Dx4
Protocol: (§2) 1×10^6 cells suspended in 100 μL of PBS were injected subcutaneously into the flanks of nude mice (xenografts) or into immunocompetent mice (syngeneic). For syngeneic models, recipient mice were descended from mice used to generate the KPC PDA cell lines. Orthotopic tumors with MiaPaca2 were generated as previously described (Niedergethmann et al., Br J Cancer 97, 1432 (Nov. 19, 2007)). Long (L) and short (S) axes of each tumor were measured with calipers (for subcutaneous tumors) or ultrasound (for orthotopic tumors). Tumor volume (V) was calculated: V=(L×S^2)/2. Tumor volumes were normalized relative to the volume at the start of drug treatment for subcutaneous tumors. […] Tumor images were acquired using a pediatric ultrasound machine. This machine was not equipped for 3D reconstruction, so the same formula V=(L×S^2)/2 was used to estimate the tumor volumes and changes. […] When appropriate, a fifth dose was given on the final day four hours prior to necropsy for pharmacological analyses.
(§3) Tissues were fixed in 10% formalin solution for 24 hours and transferred to 70% ethanol. Tissues were paraffin embedded, sectioned and rehydrated. For CD31 IHC, sections were unmasked in 10 mM EDTA, pH 8.0 in a pressure cooker. For all other antibodies, sections were unmasked in 10 mM citric acid in a pressure cooker. Endogenous peroxidases were quenched in 3% H2O2/PBS for 20 minutes. […]

[10] = tested on: transplanted pancreatic tumors; test: Apoptosis in transplanted tumors (cleaved caspase 3 immunohistochemistry); assay type: in vivo, mouse; conditions: gemcitabine Q3Dx4
Protocol: as §2, §3

[11] = tested on: pancreatic ductal adenocarcinoma; conditions: cited from earlier work

## Nc1ccn([C@@H]2O[C@H](CO)[C@@H](O)C2(F)F)c(=O)n1 [gemcitabine, 2′,2′-difluorodeoxycytidine]
KPC pancreatic tumors
  objective (ultrasonographic) response, responding mice/treated mice: 2/10
[1]
  effect on survival of KPC mice: Neither gemcitabine nor Compound A treatment had an effect on the survival
[2]
  19F signals in PDA and control tissues: absent
KPC tumors [3]
  proliferation of KPC tumors: significantly diminished; also recorded: decreased
KPC tumors [4]
  apoptosis in KPC tumors: unchanged in most KPC tumors
KPC tumors [5]
  tumor stroma / histological pattern: dense stromal matrix
[6]
  tumor growth of transplanted tumors: substantial inhibition of tumor growth
[7]
  half-life of gemcitabine in circulating blood: short half-life
[8]
  dFdCTP in KPC tumors: absent
  dFdCTP in transplanted tumor tissues and control tissues: present
[9]
  proliferative rate of transplanted tumors: significantly lower proliferative rates
[10]
  apoptosis in transplanted tumors: no significant changes in apoptosis
[11]; pancreatic ductal adenocarcinoma, standard-of-care therapy
  extension of survival: a few weeks
[11]; patients, Tempero et al. 2003
  patients with objective radiographic response at the primary tumor site: 5-10%
